According to patent publication US20220144815A1, “1,3,4-OXADIAZOLES AND THEIR DERIVATIVES AS NEW ANTIFUNGAL AGENTS” (Bayer Aktiengesellschaft, priority 2018, published 2022):
Read-outs that look alike come from different tables or passages of the source.

Experiment: Log P by HPLC on reversed phase columns, method [a] (EEC directive 79/831 Annex V.A8)
Assay type: physicochemical
Conditions: for chromatographic logP: reversed phase HPLC column
Experimental: Measurement of Log P values as provided herein was performed according to EEC directive 79/831 Annex V.A8 by HPLC (High Performance Liquid Chromatography) on reversed phase columns with the following methods: • ^[a] Log P value is determined by measurement of LC-UV, in an acidic range, with 0.1% formic acid in water and acetonitrile as eluent (linear gradient from 10% acetonitrile to 95% acetonitrile). • ^[b] Log P value is determined by measurement of LC-UV, in a neutral range, with 0.001 molar ammonium acetate solution in water and acetonitrile as eluent (linear gradient from 10% acetonitrile to 95% acetonitrile). • ^[c] Log P value is determined by measurement of LC-UV, in an acidic range, with 0.1% phosphoric acid and acetonitrile as eluent (linear gradient from 10% acetonitrile to 95% acetonitrile). If more than one Log P value is available within the same method, all the values are given and separated by “+”. Calibration was done with straight-chain alkan2-ones (with 3 to 16 carbon atoms) with known Log P values (measurement of Log P values using retention times with linear interpolation between successive alkanones). Lambda-max-values were determined using UV-spectra from 200 nm to 400 nm and the peak values of the chromatographic signals In table 1, the log P values were determined according to method [^a]. In table 2, the log P values were determined according to method [^a].

[1] = log P determined according to method [a] (HPLC on reversed phase columns), read-out: logP
[2] = log P determined according to method [a] (HPLC on reversed phase columns)
[3] = method [a], HPLC on reversed phase columns, read-out: logP

Cc1ccc(C2(Nc3ncc(-c4nnc(C(F)F)o4)cn3)COC2)cc1 [I.158, 5-[5-(difluoromethyl)-1,3,4-oxadiazol-2-yl]-N-[3-(4-methylphenyl)oxetan-3-yl]pyrimidin-2-amine]
chromatographic logP [1]: 2.57

Cc1ccccc1Nc1ncc(-c2nnc(C(F)F)o2)cn1 [Example I-086]
logP [2]: 2.51

CC1(C)OB(c2ccc(-c3nnc(C(F)F)o3)cc2)OC1(C)C [Example I-021]
logP [2]: 3.84

Fc1ccccc1C1(Nc2ncc(-c3nnc(C(F)F)s3)cn2)CC1 [I.162, 5-[5-(difluoromethyl)-1,3,4-thiadiazol-2-yl]-N-[1-(2-fluorophenyl)cyclopropyl]pyrimidin-2-amine]
chromatographic logP [1]: 3.22

O=C(NNC(=O)C(F)F)c1cnc(NC2(c3ccccc3)CCC2)nc1 [N′-(difluoroacetyl)-2-[(1-phenylcyclobutyl)amino]pyrimidine-5-carbohydrazide]
chromatographic logP (Method A: LC-UV, acidic range, 0.1% formic acid in water and acetonitrile, read-out: Log P): 1.99

Fc1ccc(C2(Nc3ncc(-c4nnc(C(F)F)o4)cn3)CC2)cc1F [I.229, 5-[5-(difluoromethyl)-1,3,4-oxadiazol-2-yl]-N-[1-(3,4-difluorophenyl)cyclopropyl]pyrimidin-2-amine]
chromatographic logP [3]: 2.84

CCn1nccc1-c1ncc(-c2nnc(C(F)F)o2)cn1 [Example I-078]
logP [2]: 2.18

Fc1ccc(Cc2ncc(-c3nnc(C(F)F)o3)cn2)cc1 [Example I-091]
logP [2]: 2.59

CSc1ccc(-c2nnc(C(F)F)o2)cc1 [Example I-002]
logP [2]: 2.75

FC(F)c1nnc(-c2ccc(Cn3ccnc3)cc2)o1 [Example I-010]
logP [2]: 0.60

FC(F)c1nnc(-c2cnc(OC3(c4ccccn4)COC3)nc2)o1 [I.143, 5-[5-(difluoromethyl)-1,3,4-oxadiazol-2-yl]-2-{[3-(pyridin-2-yl)oxetan-3-yl]oxy}pyrimidine]
chromatographic logP [1]: 1.66

FC(F)c1nnc(-c2ccc(Cl)nc2)o1 [Example I-031]
logP [2]: 1.92

Fc1ccccc1Nc1ncc(-c2nnc(C(F)F)o2)cn1 [Example I-093]
logP [2]: 2.43

Fc1cccc(F)c1CNc1ncc(-c2nnc(C(F)F)o2)cn1 [I.129, N-(2,6-difluorobenzyl)-5-[5-(difluoromethyl)-1,3,4-oxadiazol-2-yl]pyrimidin-2-amine]
chromatographic logP [1]: 2.67

CC(Nc1ncc(-c2nnc(C(F)F)o2)cn1)C1CC1 (centres unmarked) [Example I-073]
logP [2]: 2.51

C#CCNC(=O)c1ccc(-c2nnc(C(F)F)o2)cn1 [Example I-039]
logP [2]: 1.68

CC(C)(Nc1ncc(-c2nnc(C(F)F)o2)cn1)c1ccccn1 [I.198, 5-[5-(difluoromethyl)-1,3,4-oxadiazol-2-yl]-N-[2-(pyridin-2-yl)propan-2-yl]pyrimidin-2-amine]
chromatographic logP [3]: 1.11

C#CCN(c1ncc(-c2nnc(C(F)F)o2)cn1)C1(c2ccccc2F)CC1 [I.241, 5-[5-(difluoromethyl)-1,3,4-oxadiazol-2-yl]-N-[1-(2-fluorophenyl)cyclopropyl]-N-(prop-2-yn-1-yl)pyrimidin-2-amine]
chromatographic logP [3]: 4.09

CC(C)(Nc1ncc(-c2nnc(C(F)F)o2)cn1)c1ccccc1 [I.197, 5-[5-(difluoromethyl)-1,3,4-oxadiazol-2-yl]-N-(2-phenylpropan-2-yl)pyrimidin-2-amine]
chromatographic logP [3]: 3.08

CC(C)(Nc1ncc(-c2nnc(C(F)F)o2)cn1)C1CC1 [Example I-084]
logP [2]: 3.26

CN(C)Nc1ncc(-c2nnc(C(F)F)o2)cn1 [Example I-064]
logP [2]: 0.76

FC(F)c1nnc(-c2cnc(Sc3ccccc3)nc2)o1 [Example I-092]
logP [2]: 3.04

CC(C)(Nc1ncc(-c2nnc(C(F)F)o2)cn1)c1ccccc1F [I.212, 5-[5-(difluoromethyl)-1,3,4-oxadiazol-2-yl]-N-[2-(2-fluorophenyl)propan-2-yl]pyrimidin-2-amine]
chromatographic logP [3]: 3.19

CN(C(=O)c1ccc(-c2nnc(C(F)F)o2)cn1)c1ccccc1 [Example I-049]
logP [2]: 2.05

COc1ccccc1Cc1ncc(-c2nnc(C(F)F)o2)cn1 [I.107, 5-[5-(difluoromethyl)-1,3,4-oxadiazol-2-yl]-2-(2-methoxybenzyl)pyrimidine]
chromatographic logP [1]: 2.51

FC(F)c1nnc(-c2cnc(NC(c3ccccc3)c3ccccc3)nc2)o1 [I.238, 5-[5-(difluoromethyl)-1,3,4-oxadiazol-2-yl]-N-(diphenylmethyl)pyrimidin-2-amine]
chromatographic logP [3]: 3.52

Nc1ccc(-c2nnc(C(F)F)o2)cn1 [Example I-030]
logP [2]: 0.11

CC(Nc1ncc(-c2nnc(C(F)F)o2)cn1)c1cccc(Cl)c1 (racemic) [I.213, N-[(1RS)-1-(3-chlorophenyl)ethyl]-5-[5-(difluoromethyl)-1,3,4-oxadiazol-2-yl]pyrimidin-2-amine]
chromatographic logP [3]: 3.2

COc1ccc(-c2ncc(-c3nnc(C(F)F)o3)cn2)cc1 [Example I-089]
logP [2]: 3.01

FC(F)c1nnc(-c2cnc(NC3(c4ccccn4)CCCC3)nc2)o1 [I.219, 5-[5-(difluoromethyl)-1,3,4-oxadiazol-2-yl]-N-[1-(pyridin-2-yl)cyclopentyl]pyrimidin-2-amine]
chromatographic logP [3]: 1.38

FC(F)c1nnc(-c2cnc(-c3cccs3)nc2)o1 [Example I-071]
logP [2]: 2.64

Fc1ccc(-c2ncc(-c3nnc(C(F)F)o3)cn2)cn1 [Example I-080]
logP [2]: 2.31

FC(F)c1nnc(-c2cnc(C3=CCCC3)nc2)o1 [Example I-065]
logP [2]: 2.70

CC(Nc1ncc(-c2nnc(C(F)F)o2)cn1)c1cccc(C(F)(F)F)c1 (racemic) [I.239, 5-[5-(difluoromethyl)-1,3,4-oxadiazol-2-yl]-N-{(1RS)-1-[3-(trifluoromethyl)phenyl]ethyl}pyrimidin-2-amine]
chromatographic logP [3]: 3.37

FC(F)c1nnc(-c2ccc(N3CCOCC3)nc2)o1 [Example I-041]
logP [2]: 1.91

Fc1cc(C(F)(F)F)ccc1C1(Nc2ncc(-c3nnc(C(F)F)o3)cn2)CC1 [I.263, 5-[5-(difluoromethyl)-1,3,4-oxadiazol-2-yl]-N-{1-[2-fluoro-4-(trifluoromethyl)phenyl]cyclopropyl}pyrimidin-2-amine]
chromatographic logP [3]: 3.59

FC(F)c1nnc(-c2cnc(-c3ccccc3Cl)nc2)o1 [Example I-099]
logP [2]: 3.32

CCc1noc(-c2ccc(-c3nnc(C(F)(F)F)o3)cc2)n1 [Example I-018]
logP [2]: 3.59

FC(F)c1nnc(-c2cnc(NC3(C4CCCCC4)CC3)nc2)o1 [I.126, N-(1-cyclohexylcyclopropyl)-5-[5-(difluoromethyl)-1,3,4-oxadiazol-2-yl]pyrimidin-2-amine]
chromatographic logP [1]: 3.57

CC(=O)Nc1ccc(-c2nnc(C(F)F)o2)cn1 [Example I-034]
logP [2]: 1.32

FC(F)c1nnc(-c2cnc(NCc3ccccc3Cl)nc2)o1 [I.128, N-(2-chlorobenzyl)-5-[5-(difluoromethyl)-1,3,4-oxadiazol-2-yl]pyrimidin-2-amine]
chromatographic logP [1]: 2.95

C[C@@H](Nc1ncc(-c2nnc(C(F)F)o2)cn1)c1ccc(F)cc1 [I.125a, 5-[5-(difluoromethyl)-1,3,4-oxadiazol-2-yl]-N-[(1R)-1-(4-fluorophenyl)ethyl]pyrimidin-2-amine]
chromatographic logP [1]: 2.86

Fc1ccc(C2(Nc3ncc(-c4nnc(C(F)F)o4)cn3)CCC2)cc1 [I.220, 5-[5-(difluoromethyl)-1,3,4-oxadiazol-2-yl]-N-[1-(4-fluorophenyl)cyclobutyl]pyrimidin-2-amine]
chromatographic logP [3]: 3.33

COC(=O)C1(Nc2ncc(-c3nnc(C(F)F)o3)cn2)CC1 [I.104, methyl 1-({5-[5-(difluoromethyl)-1,3,4-oxadiazol-2-yl]pyrimidin-2-yl}amino)cyclopropanecarboxylate]
chromatographic logP [1]: 1.64

CC(Nc1ncc(-c2nnc(C(F)F)o2)cn1)C1(C)CC1 (racemic) [I.186, 5-[5-(difluoromethyl)-1,3,4-oxadiazol-2-yl]-N-[(1RS)-1-(1-methylcyclopropyl)ethyl]pyrimidin-2-amine]
chromatographic logP [3]: 2.91

Fc1ccc(CCNc2ncc(-c3nnc(C(F)F)o3)cn2)cc1 [I.200, 5-[5-(difluoromethyl)-1,3,4-oxadiazol-2-yl]-N-[2-(4-fluorophenyl)ethyl]pyrimidin-2-amine]
chromatographic logP [3]: 2.84

FC(F)c1nnc(-c2cnc(NC3(c4ccccc4Cl)CCC3)nc2)o1 [I.174, N-[1-(2-chlorophenyl)cyclobutyl]-5-[5-(difluoromethyl)-1,3,4-oxadiazol-2-yl]pyrimidin-2-amine]
chromatographic logP [3]: 3.81

FC(F)c1nnc(-c2cnc(NC3(c4ccco4)CCCC3)nc2)o1 [I.208, 5-[5-(difluoromethyl)-1,3,4-oxadiazol-2-yl]-N-[1-(2-furyl)cyclopentyl]pyrimidin-2-amine]
chromatographic logP [3]: 3.18

Fc1ccc(C(F)(F)CNc2ncc(-c3nnc(C(F)F)o3)cn2)cc1 [I.234, N-[2,2-difluoro-2-(4-fluorophenyl)ethyl]-5-[5-(difluoromethyl)-1,3,4-oxadiazol-2-yl]pyrimidin-2-amine]
chromatographic logP [3]: 2.9

Fc1ccc(C2(Oc3ncc(-c4nnc(C(F)F)o4)cn3)CC2)cc1 [I.149, 5-[5-(difluoromethyl)-1,3,4-oxadiazol-2-yl]-2-{[1-(4-fluorophenyl)cyclopropyl]oxy}pyrimidine]
chromatographic logP [1]: 3.19
